Entries after “also recorded” stand apart in the source; their conditions may differ.
tested on: CPP32; experiment: Assay for dATP-dependent activation of CPP32 protease (cleavage of in vitro translated 35S-labeled CPP32 in HeLa S-100); format: biochemical, hamster; conditions: 1 mM nucleotide, 30° C., 1 hr
Method: The samples were subjected to SDS-PAGE and transferred to a nitrocellulose filter. The filter was exposed to film for 16 hours at room temperature. In FIG. 2B, a 50 μl aliquot of HeLa S-100 (250 μg) was incubated with each aliquot of 6 μl hamster liver nuclei at 37° C. for 2 hr in the presence of 1 mM indicated nucleotide. The DNA was isolated, analyzed by 2% agarose gel electrophoresis and visualized by ethidium bromide staining.
To test the nucleotide specificity for activation of CPP32 and DNA fragmentation, HeLa cell S-100 was incubated with in vitro translated, ^35S-labeled CPP32 in the presence of 1 mM of various nucleotides (FIG. 2A).
A PCR fragment encoding amino acids 29-277 of hamster CPP32 [Wang et al. (1996) supra] was cloned into NdeI and BamHI sites of pET 15b vector (Novagen, Madison, Wis.). The resulting fusion protein of six histidines with hamster CPP32 (amino acids 29-277) was translated in a TNT T7 transcription/translation kit (Promega, Madison, Wis.) in the presence of ^35S-methionine according to the manufacturer's instructions. The translated protein was passed through a 1 ml nickel affirmity column (Qiagen, Chatsworth, Calif.) equilibrated with buffer A. After washing the column with 10 ml of buffer A, the translated CPP32 was eluted with buffer A containing 250 mM imidazole. Human SREBP-2 was translated in a TNT SP6 transcription/translation kit as described [Wang et al. (1995) [Hua et al. (1993) Proc. Natl. Acad. Sci. USA 90, 11603-11607]. Full length human PARP cDNA [Chemey et al. (1987) Proc. Natl. Acad. Sci. USA 84, 8370-8374] was cloned into SmaI and EcoRI sites of pBK-CMV vector (Stratagene, La Jolla, Calif.) and translated in a TNT T7 transcription/translation kit [Promega, Madison, Wis.]. The translated SREBP-2 and PARP (200 μl each) were purified by passing each translation mixture through a 10-ml Sephadex G-25 gel-filtration column equilibrated with buffer A. The translated proteins contained within the exclusion volume of the column were collected.
CPP32 was translated and purified as described above. Aliquot of 3 μl of the in vitro translated CPP32 was incubated with the indicated protein fraction, nucleotides, and 1 mM additional MgCl2 at 30° C. for 1 hour in a final volume of 20 μl of buffer A. At the end of the incubation, 7 μl of 4×SDS sample buffer was added to each reaction. After boiling for 3 min, each sample was subjected to a 15% SDS-polyacrylamide gel electrophoresis (SDS-PAGE). The gel was transferred to a nitrocellulose filter which was subsequently exposed to a Kodak X-OMAT AR X-ray film (Eastman Kodak, Rochester, N.Y.) for 16 hr at room temperature.

Row | Compound | cleavage of 35S-labeled CPP32 (nucleotide specificity)
1 | Cc1cn([C@H]2C[C@H](O)[C@@H](COP(=O)(O)OP(=O)(O)OP(=O)(O)O)O2)c(=O)[nH]c1=O [dTTP] | did not replace dATP
2 | Nc1ccn([C@H]2C[C@H](O)[C@@H](COP(=O)(O)OP(=O)(O)OP(=O)(O)O)O2)c(=O)n1 [dCTP] | did not replace dATP
3 | Nc1ccn([C@@H]2O[C@H](COP(=O)(O)OP(=O)(O)OP(=O)(O)O)[C@@H](O)[C@H]2O)c(=O)n1 [CTP] | did not replace dATP
4 | Nc1ncnc2c1ncn2[C@H]1C[C@H](O)[C@@H](CO)O1 [deoxyadenosine] | did not replace dATP
5 | Nc1nc2c(ncn2[C@H]2C[C@H](O)[C@@H](COP(=O)(O)OP(=O)(O)OP(=O)(O)O)O2)c(=O)[nH]1 [dGTP] | did not replace dATP
6 | Nc1ncnc2c1ncn2[C@H]1C[C@H](O)[C@@H](COP(=O)(O)O)O1 [dAMP] | did not replace dATP
7 | Nc1ncnc2c1ncn2[C@@H]1O[C@H](COP(=O)(O)O)[C@@H](O)[C@H]1O [AMP] | did not replace dATP
8 | Nc1nc2c(ncn2[C@@H]2O[C@H](COP(=O)(O)OP(=O)(O)OP(=O)(O)O)[C@@H](O)[C@H]2O)c(=O)[nH]1 [GTP] | did not replace dATP
9 | O=c1ccn([C@@H]2O[C@H](COP(=O)(O)OP(=O)(O)OP(=O)(O)O)[C@@H](O)[C@H]2O)c(=O)[nH]1 [UTP] | did not replace dATP
10 | Nc1ncnc2c1ncn2[C@@H]1O[C@H](COP(=O)(O)OP(=O)(O)O)[C@@H](O)[C@H]1O [ADP] | did not replace dATP
11 | Nc1ncnc2c1ncn2[C@H]1C[C@H](O)[C@@H](COP(=O)(O)OP(=O)(O)O)O1 [dADP] | Cleavage occurred; also recorded: can substitute for dATP
12 | Nc1ncnc2c1ncn2[C@@H]1O[C@H](CO)[C@@H](O)[C@H]1O [adenosine] | did not replace dATP

tested on: CPP32; experiment: Apaf-2 activity: recombining with phosphocellulose flow through fraction (Apaf-1) and 35S-labeled CPP32; format: biochemical, human; conditions: one unit = cleavage of 1% of the input substrate in 60 min
Method: FIG. 3 illustrates fractionation and reconstitution of dATP-dependent activation of CPP32 by phosphocellulose chromatography. HeLa cell S-100 was subjected to phosphocellulose chromatography and the column flow through and bound material were collected as described in the Examples. Aliquots (10 μl) of HeLa S-100 (50 μg) (lanes 1 and 2), phosphocellulose flow through fraction (PC-FT) (lanes 3 and 4), phosphocellulose bound fraction (PC-B) (lanes 5 and 6), and the mixture of phosphocellulose flow through and bound material (lanes 7 and 8) were incubated with aliquots of 3 μl in vitro translated, ^35S-labeled CPP32 at 30° C. for 1 hr in the absence (lanes 1,3,5,7) or presence (lanes 2,4,6,8) of 1 mM dATP. The samples were subjected to SDS-PAGE, transferred to a nitrocellulose filter, and the filter was exposed to film for 16 hours at room temperature.
The Apaf-2 activity that bound to the phosphocellulose column was purified through the Mono S column as described in Example 7. […] In FIG. 4B, aliquots (30 μl) of the Mono-S fractions were subjected to 15% SDS-PAGE and the proteins were visualized by silver staining.
Aliquots of 0.2 μg of Apaf-2 purified through the Mono S column (lanes 1, 2), cytochrome c from bovine heart (lanes 3, 4), and rat liver (lanes 5, 6) were incubated with aliquots of 10 μl phosphocellulose flowthrough fraction and 3 μl in vitro translated, 35S-labeled CPP32 at 30° C. for 1 hr in a final volume of 20 μl buffer A in the absence (lanes 1,3,5) or presence of (lanes 2, 4, 6) 1 mM dATP. Samples were subjected to SDS-PAGE and transferred to a nitrocellulose filter which was then exposed to a film for 16 hr at room temperature.
To isolate the protein(s) required for the activation of CPP32, HeLa S-100 was loaded onto a phosphocellulose column, and the flow-through and bound fractions were collected. […] When the flowthrough and bound fractions were mixed, CPP32-activating activity was restored (lanes 7-8). […] The factor(s) that flow through the phosphocellulose column are designated apoptotic protease activating factor-1 (Apaf-1) and the factor that bound to the column is designated apoptotic protease activating factor-2 (Apaf-2). It is understood that “Apaf-1” may represent more than one protein or it may represent a combination of protein(s) and other factors.
Apaf-2 activity was assayed by recombining with Apaf-1 after purification by the following steps. First, the Apaf-2 fraction was subjected to 50% ammonium sulfate precipitation. All of the activity remained in the supernatant while most of the protein precipitated (Table I). The supernatant was loaded onto a phenyl-sepharose (hydrophobic interaction) column and the activity was eluted with 1 M ammonium sulfate. The eluate was passed through a gel filtration column; active fractions were subjected to sequential Mono Q (anion exchange) and Mono S (cation exchange) chromatography. The Apaf-2 activity flowed through the Mono Q column, and the flow through was directly loaded onto the Mono S column. Bound Apaf-2 activity was then eluted with a 100-300 mM NaCl linear salt gradient. The fractions from the Mono S column were collected and assayed. […] The active fractions were analyzed by SDS-PAGE (FIG. 4B). A protein of apparent molecular mass of 15 kDa was co-eluted with the activity. No other proteins were detected by silver staining in the active Apaf-2 fractions.
CPP32 was translated and purified as described above. […]

Row | Compound | Specific Activity [units/mg] | Total Activity [unit]
13 | Mono Q/Mono-S: Apaf-2 purification step 6: Apaf-2 purified through the Mono S column | 263150 | 20000

— patent US6558900B2, “Regulation of apoptosis and in vitro model for studies thereof” (Emory University, priority 1996, dated 2003)
